Assay results taken from US10201587B2, “Methods of inhibiting and treating biofilms using glycopeptide antibiotics” (MELINTA THERAPEUTICS, INC., priority 2008, dated 2019).

How the values were obtained:
[1] = system: S. aureus strains (MSSA ATCC 29213, MRSA ATCC 33591, VRSA VRS5); test: MBEC system in vitro biofilm, statements over all three strains; format: cell-based; settings: 24-hour biofilm
Experimental: The commercially-available MBEC™ system (Innovotech; Edmonton, AB, Canada) was used following the manufacturer's protocol (17) to establish in vitro biofilms of S. aureus and to determine the minimal biofilm eradication concentration (MBEC) of oritavancin and comparator antimicrobial agents. The MBEC represents the concentration of antimicrobial agent required to sterilize the biofilm after 24 hours of exposure. The MBEC™ system also allows for the determination of the minimal inhibitory concentration (MIC) of the test agent against planktonic cells under the conditions of the biofilm assay.
150 μL of bacterial inocula at 10^7 CFU/mL in tryptic soy broth was aliquoted into each well of an MBEC plate. Biofilms were established for 24 hours in a rotary incubator at 37° C. and 150 rpm. For experiments involving 72-hour biofilms, peg lids were transferred each day to 96-well plates containing 150 μL/well of fresh tryptic soy broth and incubated another 24 hours. […] The recovery plates were sonicated for 5 minutes in an ultrasonic sonicating bath (VWR Aquasonic model 550D) at the maximum setting then incubated for 24 hours and the MBECs recorded. MBECs were determined from at least three independent experiments; results represent the ranges of MBECs obtained. […]

[2] = system: vancomycin (VAN)-susceptible Enterococcus faecalis ATCC 29212 (VSE); test: MBEC plate biofilm eradication; format: cell-based; settings: 24 h of drug challenge
From the text: (§1) The following strains were used for in vitro biofilm studies: vancomycin (VAN)-susceptible Enterococcus faecalis ATCC 29212 (VSE), VAN-resistant E. faecalis ATCC 51299 (VanB VRE), E. faecium ATCC 51559 (VanA VRE), S. epidermidis ATCC 12228 and the slime-producing strain S. epidermidis ATCC 35984. Biofilms were established in MBEC™ Physiology & Genetics Assay plates (Innovotech; Edmonton, Canada).

[3] = system: E. faecium ATCC 51559 (VanA VRE); test: MBEC plate biofilm eradication; format: cell-based; settings: 24 h of drug challenge
From the text: as §1

[4] = system: S. epidermidis ATCC 12228; test: MBEC plate biofilm eradication; format: cell-based; settings: single agents
From the text: as §1

[5] = system: VAN-resistant E. faecalis ATCC 51299 (VanB VRE); test: MBEC plate biofilm eradication; format: cell-based; settings: 24 h of drug challenge
From the text: as §1

[6] = humans, cited from earlier work
[7] = system: Staphylococcus epidermidis ATCC 35984; test: Prevention of in vitro biofilm formation on coated silicone tubing; format: cell-based; settings: silicone tubing incubated overnight in 20 mg/ml solution; inoculum 10^5 or 10^7 CFU/ml
Experimental: Silicone tubing (0.040″ inner-diameter by 0.085″ outer-diameter by 0.023″ wall thickness; VWR International) was cut into 1 cm lengths then cut longitudinally in half. Cut tubing pieces were sterilized overnight in 99% ethanol. Tubing pieces were rinsed in 2 ml of sterile water then incubated overnight at room temperature in 20 mg/ml of either oritavancin or chloroeremomycin solution in water. Control tubing pieces were incubated in water as described. The following day, tubing pieces were rinsed in 2 ml of water then incubated with Staphylococcus epidermis ATCC 35984 at an inoculum density of either 10^5 CFU/ml or 10^7 CFU/ml in tryptic soy broth at 37° C. with rotation at 150 rpm in a rotational incubator. Tubing pieces were rinsed in 2 ml of sterile physiologic saline and bacteria in the biofilm formed on the silicone tubing were recovered by sonicating the tubing pieces in 1 ml of sterile physiologic saline in a sonicating water bath (VWR Aquasonic model 550D). Recovered bacteria were enumerated by serial dilution plating.

MSSA ATCC 29213 = settings: absence of 0.002% polysorbate-80; cited from earlier work
[8] = system: S. epidermidis ATCC 35984; test: MBEC plate biofilm eradication, agents in combination; format: cell-based
From the text: as §1

[9] = system: stationary-phase MRSA ATCC 43300; test: Ultrastructure by transmission electron microscopy of thin sections; format: cell-based, S. aureus; settings: 3 hours in nutrient-depleted CAMHB; 1 μg/mL oritavancin, 16 μg/mL vancomycin
Experimental: Bacteria were fixed in 2.5% glutaraldehyde to cross-link proteins and help preserve morphological structure. Prior to embedding, the samples were treated with fresh 2.5% (vol/vol) glutaraldehyde in HEPES buffer (pH, 6.8) for 2 hours. The samples were then post-fixed in 2.0% (wt/vol) osmium tetroxide, followed by en bloc-staining with 2.0% (wt/vol) uranyl acetate, as a heavy-metal stain, to add contrast to the cells. The cells were then dehydrated through a series of ethanol washes then embedded in LR White resin. Once polymerized by curing, each culture sample was thin sectioned and stained by uranyl acetate and lead citrate so as to view the internal cellular constituents and the juxtaposition of cell envelope layers such as the plasma membrane and cell wall. Transmission electron microscopy was used to view the thin sections using a Philips CM10 under standard operating conditions at 100 kV.

S. aureus ATCC 29213 = test: Short duration (2 h) time-kill in membrane assay buffer; format: cell-based
Experimental: Short duration (2 h) time-kill studies were performed in membrane assay buffer (see below) to characterize the killing of S. aureus ATCC 29213 under conditions used in the membrane depolarization and permeability assays. Exponential- and stationary-phase S. aureus ATCC 29213 cells were diluted to an OD600=0.005 (approx 10^6 CFU/mL) in membrane assay buffer (10 mM HEPES-C1, pH 7.5, 50 μg/mL CaCl2) with or without 5 mM glucose, respectively. Experiments were initiated by the addition of antimicrobial agents at the indicated concentrations and bacteria were enumerated by serial-dilution plating.

[10] = standard dose (oritavancin 200 mg)

CN[C@H](CC(C)C)C(=O)N[C@H]1C(=O)N[C@@H](CC(N)=O)C(=O)N[C@H]2C(=O)N[C@H]3C(=O)N[C@H](C(=O)N[C@H](C(=O)O)c4cc(O)cc(O)c4-c4cc3ccc4O)[C@H](O[C@H]3C[C@](C)(N)[C@@H](O)[C@H](C)O3)c3ccc(c(Cl)c3)Oc3cc2cc(c3O[C@@H]2O[C@H](CO)[C@@H](O)[C@H](O)[C@H]2O[C@H]2C[C@](C)(NCc3ccc(-c4ccc(Cl)cc4)cc3)[C@@H](O)[C@H](C)O2)Oc2ccc(cc2Cl)[C@H]1O [Oritavancin, N-(4-(4-chlorophenyl)benzyl)A82846B]
MBEC ([1]; all three S. aureus strains): 2 to 8 µg/mL | MBEC relative to respective planktonic MIC ([1]; in each experiment): within one doubling dilution | MBEC [2]: 2 to 4 mg/L | MBEC [3]: 2 to 4 mg/L | MBEC [4]: 2 to 4 mg/L | MBEC [5]: 2 to 4 mg/L | predicted fCmax 800 in plasma ([6]; single 800 mg dose): 16 µg/mL | estimated fCmax in plasma [6, 10]: 4 µg/mL | estimated free trough concentration in plasma [6, 10]: 0.5 µg/mL | activity on a coated surface against biofilm formation [7]: significant activity | CLSI quality control range of MIC (MSSA ATCC 29213): 0.5 to 2 µg/mL | MBEC in combination ([8]; combination of ORI and MOX required for sterilization): 4 mg/L | MBEC in combination ([8]; combination of ORI and RFB required for sterilization): 4 mg/L | septal mid-line staining [9]: conspicuously absent | reduction in CFU (S. aureus ATCC 29213; exponential-phase cells, within 5 minutes, 16 μg/mL): 4 log | reduction in CFU (S. aureus ATCC 29213; stationary-phase cells, within the 2-hour time period, oritavancin at fCmax 800, daptomycin at fCmax): approximately 1 log
